The text below walks through data of US8592581B2, “Trisubstituted purine derivatives” (Cyclacel Limited, priority 2007, dated 2013).

Some results are limits rather than exact numbers.

Data set [1] concerns various cell lines. As to the kind of experiment: Alamar blue cytotoxicity assay, average over the cell lines of Table 8. Format: cell-based. The protocol:
(§1) In order to determine the cellular potency of the compounds, the cytotoxicity of each compound was determined against a range of cell lines. Standard cytotoxicity methods were performed as follows: cells were seeded in 96-well plates appropriately for their doubling time (2-5000 cells per well) in RPMI or DMEM media containing 10% FCS and incubated overnight at 37° C., 5% CO2. The media was removed and 100 μl fresh media containing increasing concentrations of appropriate compound was added and the cells incubated for 72 hours at 37° C., 5% CO2. A 10% stock of alamar blue (Roche, Lewes, United Kingdom) was prepared in medium and 100 μl added to the cells which were incubated for 2 hours. Absorbance was measured on the Wallac Victor 2 1420 multi-label counter at 544-595 nm.

For data set [2], the system named is H358. As to the kind of experiment: Alamar blue cytotoxicity assay H358. Format: cell-based. As to conditions: Homo sapiens, NCI-H358; 72 hours; read-out: cellular cytotoxicity IC50 H358. The protocol: as §1
In general terms: Alamar Blue is a resazurin reagent that responds to reducing activity.

Data set [3] deals with CYP1A (Homo sapiens, UniProt P05177). Put plainly: CYP1A inhibition, human liver microsomes, ethoxyresorufin. Type of data set: in vitro ADME. As to conditions: human liver microsomes, probe ethoxyresorufin (0.5 μM), read-out: IC50 (μM) CYP1A. The protocol:
Six test compound concentrations (0.05, 0.25, 0.5, 2.5, 5, 25 μM in DMSO; final DMSO concentration=0.35%) were incubated with human liver microsomes (0.25 mg/mL) and NADPH (1 mM) in the presence of the probe substrate ethoxyresorufin (0.5 μM) for 5 min at 37° C. The selective CYP1A inhibitor, alpha-naphthoflavone, was screened alongside the test compounds as a positive control.
(§2) For the CYP1A incubations, the reactions were terminated by the addition of methanol, and the formation of the metabolite, resorufin, was monitored by fluorescence (excitation wavelength=535 nm, emission wavelength=595 nm). For the CYP2C9, CYP2C19, CYP2D6, and CYP3A4 incubations, the reactions were terminated by the addition of methanol containing internal standard. The samples were then centrifuged, and the supernatants were combined, for the simultaneous analysis of 4-hydroxytolbutamide, 4-hydroxymephenyloin, dextrorphan, and 1-hydroxymidazolam plus internal standard by LC-MS/MS using generic LC-MS/MS conditions. Formic acid in deionised water (final concentration=0.1%) was added to the final sample prior to analysis.
On the technique in general: Liver microsomes are vesicles of endoplasmic reticulum, rich in cytochrome P450 enzymes.

Data set [4] has as its system MCF7. As to the kind of experiment: Alamar blue cytotoxicity assay MCF7. Format: cell-based. As to conditions: Homo sapiens, 72 hours, read-out: cellular cytotoxicity IC50 MCF7. The protocol: as §1
For data set [5], the system named is MESSA. As to the kind of experiment: Alamar blue cytotoxicity assay MESSA. Format: cell-based. The following applies: Homo sapiens, MES-SA; 72 hours; read-out: cellular cytotoxicity IC50 MESSA. The protocol:
as §1

The target of data set [6] is CYP2C8 (Homo sapiens (Human), UniProt P10632). Put plainly: Cytochrome P450 substrate identification (Bactosomes) CYP2C8. The following applies: pH 7.4, 5 μM test compound, up to 45 min, read-out: half life in the presence of CYP2C8. Format: in vitro ADME. The protocol:
(§3) cDNA expressed human CYP450 enzyme preparations co-expressed with human NADPH cytochrome P450 reductase (Bactosomes™) were supplied by Cypex Ltd. Bactosomes™ (final P450 concentration CYP1A2 100 pmol/mL, CYP2C8 50 pmol/mL, CYP2C9 25 pmol/mL, CYP2C19 100 pmol/mL, CYP2D6 50 pmol/mL and CYP3A4 25 pmol/mL), 0.1M phosphate buffer pH7.4 and test compound (final substrate concentration=5 μM; final DMSO concentration=0.25%) were pre-incubated at 37° C. prior to the addition of NADPH (final concentration=1 mM) to initiate the reaction. Incubations were also performed using control bactosomes (no P450 enzymes present) to reveal any non-enzymatic degradation. The final incubation volume was 25 μL. Compounds known to be metabolised specifically by each CYP450 isoform were used as control compounds.
(§4) Each compound was incubated singly for 0, 5, 15, 30 and 45 min with each CYP isoform. The reactions were stopped by the addition of 50 μL methanol containing internal standard at the appropriate time points. The incubation plates were centrifuged at 2500 rpm for 20 min at 4° C. to precipitate the protein. Following protein precipitation, the sample supernatants were combined in cassettes of up to four compounds and analysed using generic LC-MS/MS conditions.
(§5) The In peak area ratio (which has been corrected for any loss in the incubations with the control bactosomes) was plotted against time and the gradient of the line determined.
(§6) The elimination rate constant (k)=(−gradient)

Data set [7] addresses CYP2C9 (Homo sapiens (Human), UniProt P11712). As to the kind of experiment: Cytochrome P450 substrate identification (Bactosomes) CYP2C9. Format: in vitro ADME. The following applies: pH 7.4, 5 μM test compound, up to 45 min, read-out: half life in the presence of CYP2C9. The procedure:
as §3, §4, §5, §6

The subject of data set [8] is A2780. Put plainly: Alamar blue cytotoxicity assay A2780. Type of data set: cell-based. The following applies: Homo sapiens, 72 hours, read-out: cellular cytotoxicity IC50 A2780. The procedure:
as §1

In data set [9] the target is CYP3A4 (Homo sapiens (Human), UniProt P08684). As to the kind of experiment: CYP3A4 inhibition, human liver microsomes, midazolam. Format: in vitro ADME. The protocol:
Six test compound concentrations (0.05, 0.25, 0.5, 2.5, 5, 25 μM in DMSO; final DMSO concentration 0.26%) were incubated with human liver microsomes (0.25 mg/mL) and NADPH (1 mM) in the presence of the probe substrate midazolam (2.5 μM) for 5 min at 37° C. The selective CYP3A4 inhibitor, ketoconazole, was screened alongside the test compounds as a positive control.
as §2

Data set [10] concerns NCI-H460. As to the kind of experiment: Alamar blue cytotoxicity assay NCI-H460. The following applies: Homo sapiens, 72 hours, read-out: cellular cytotoxicity IC50 NCI-H460. Format: cell-based. The procedure: as §1
Data set [11] concerns H292. Put plainly: Alamar blue cytotoxicity assay H292. The following applies: Homo sapiens, NCI-H292; 72 hours; read-out: cellular cytotoxicity IC50 H292. Type of data set: cell-based. The protocol: as §1
For data set [12], the system named is LoVo. Put plainly: Alamar blue cytotoxicity assay LoVo. As to conditions: Homo sapiens, 72 hours, read-out: cellular cytotoxicity IC50 LoVo. Type of data set: cell-based. The protocol: as §1
Data set [13] has as its system H460 non-small cell lung cancer (NSCLC) cell line. As to the kind of experiment: Alamar blue cytotoxicity assay in H460 NSCLC tumour cell line. Type of data set: cell-based. The following applies: H460 cells, 72 hours, average of three independent experiments. The procedure:
as §1, with “the H460 non-small” for “a range of”, “lung cancer (NSCLC) cell line.” for “lines.”, “follows: H460” for “follows:”, “(3000” for “(2-5000”, “RPMI” for “RPMI or DMEM”, “hours.” for “hours. Absorbance was measured on the Wallac Victor 2 1420 multi-label counter at 544-595 nm.”

One may read the IC50 as the concentration needed to halve the response being measured. One may read the half-life as the time needed for the level to fall by half in the phase considered.

CYP3A4, sequence (P08684 whole entry): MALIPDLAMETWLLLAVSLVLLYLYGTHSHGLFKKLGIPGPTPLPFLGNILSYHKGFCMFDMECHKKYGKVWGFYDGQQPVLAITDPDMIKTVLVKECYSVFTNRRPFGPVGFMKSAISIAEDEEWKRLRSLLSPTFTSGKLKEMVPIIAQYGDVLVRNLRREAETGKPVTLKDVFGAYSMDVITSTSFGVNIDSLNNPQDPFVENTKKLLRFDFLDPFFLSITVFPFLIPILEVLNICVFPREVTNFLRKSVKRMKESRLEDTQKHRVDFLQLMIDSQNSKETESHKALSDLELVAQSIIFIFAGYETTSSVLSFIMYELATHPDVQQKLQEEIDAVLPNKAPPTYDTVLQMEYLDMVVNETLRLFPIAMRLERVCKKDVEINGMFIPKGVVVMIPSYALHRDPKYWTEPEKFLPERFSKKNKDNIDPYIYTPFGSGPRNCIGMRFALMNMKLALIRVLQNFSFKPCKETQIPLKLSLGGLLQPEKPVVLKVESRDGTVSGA
CYP2C8, sequence (P10632 whole entry): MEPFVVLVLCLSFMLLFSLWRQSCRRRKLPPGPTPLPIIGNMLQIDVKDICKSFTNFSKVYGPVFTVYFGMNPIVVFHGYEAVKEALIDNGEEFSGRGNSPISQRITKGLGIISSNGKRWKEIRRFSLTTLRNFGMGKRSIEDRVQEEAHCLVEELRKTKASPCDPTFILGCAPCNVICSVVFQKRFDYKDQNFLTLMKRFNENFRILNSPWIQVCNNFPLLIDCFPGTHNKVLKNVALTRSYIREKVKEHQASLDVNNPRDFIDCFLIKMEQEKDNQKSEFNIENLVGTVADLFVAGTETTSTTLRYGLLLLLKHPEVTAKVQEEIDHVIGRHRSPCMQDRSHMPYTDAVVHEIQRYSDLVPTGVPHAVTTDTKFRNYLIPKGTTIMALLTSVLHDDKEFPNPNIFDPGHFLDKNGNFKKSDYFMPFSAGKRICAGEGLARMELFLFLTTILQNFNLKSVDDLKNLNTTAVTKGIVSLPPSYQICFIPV
CYP2C9, sequence (P11712 whole entry): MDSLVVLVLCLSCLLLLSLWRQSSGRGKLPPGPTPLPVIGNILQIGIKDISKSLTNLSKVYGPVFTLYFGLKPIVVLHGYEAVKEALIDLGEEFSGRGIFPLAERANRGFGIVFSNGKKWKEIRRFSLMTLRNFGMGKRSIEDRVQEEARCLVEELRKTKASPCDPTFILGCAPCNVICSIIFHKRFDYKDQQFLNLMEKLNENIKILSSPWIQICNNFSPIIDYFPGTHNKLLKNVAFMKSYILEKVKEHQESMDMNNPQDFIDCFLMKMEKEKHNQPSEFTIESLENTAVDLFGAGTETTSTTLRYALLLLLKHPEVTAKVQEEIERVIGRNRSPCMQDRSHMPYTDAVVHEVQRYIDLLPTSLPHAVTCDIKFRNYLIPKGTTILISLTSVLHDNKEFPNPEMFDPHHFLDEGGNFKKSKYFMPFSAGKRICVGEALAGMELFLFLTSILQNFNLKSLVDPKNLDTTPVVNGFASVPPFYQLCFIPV
CYP1A, sequence (P05177 2-516 limits assumed): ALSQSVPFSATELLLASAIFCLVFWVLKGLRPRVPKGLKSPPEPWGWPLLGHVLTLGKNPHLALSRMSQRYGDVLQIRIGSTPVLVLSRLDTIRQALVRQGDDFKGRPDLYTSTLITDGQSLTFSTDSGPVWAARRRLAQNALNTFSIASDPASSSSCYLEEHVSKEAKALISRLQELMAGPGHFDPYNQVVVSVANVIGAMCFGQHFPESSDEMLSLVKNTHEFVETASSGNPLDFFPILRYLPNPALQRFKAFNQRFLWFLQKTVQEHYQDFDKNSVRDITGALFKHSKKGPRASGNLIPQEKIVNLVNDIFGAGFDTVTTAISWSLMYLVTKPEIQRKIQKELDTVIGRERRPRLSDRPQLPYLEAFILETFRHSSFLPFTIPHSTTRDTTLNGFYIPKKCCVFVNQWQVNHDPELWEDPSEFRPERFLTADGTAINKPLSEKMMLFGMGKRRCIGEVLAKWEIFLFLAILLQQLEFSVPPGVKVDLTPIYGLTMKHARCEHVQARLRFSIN

`CC[C@H](Nc1nc(NCc2cnc(C)cc2C)c2ncn(C(C)C)c2n1)[C@@H](C)O` [Compound [1]]: in [1] (21 cell lines, versus [A1], [A2] or [A3]), the “cytotoxic potency compared with prior art compounds (in words)” value is listed as “significantly more potent”. Also, the IC50 in data set [1] (average over the cell lines of Table 8, read-out: cellular cytotoxicity IC50 Ave) was 350 nM; in [2], 180 nM; in [4] it was 260 nM; in data set [5], 160 nM; in data set [8], 410 nM; in data set [9] (human liver microsomes) it was 22.5 µM. For the same compound, the 50% inhibitory concentration (IC50) in data set [10] is 500 nM; in data set [11], 370 nM; in data set [12] it was 700 nM; in data set [13] it was 500 nM; in data set [13] (Homo sapiens, NCI-H460, 72 h), under 1000 nM. Further, in data set [3], the IC50 at 5 min was over 25 µM. Also, the half-life at 5 μM in data set [6] and in data set [7] was over 45 min throughout. For the same compound, the “CYP3A4-inhibiting concentration as multiple of cellular IC50” value in data set [9] is about 60 times. Moreover, in data set [9], the “concentration up to which CYP3A4 is not inhibited” value was “greater than 20 μM”. Moreover, in [9], the “inhibition of CYP3A4 (in words)” value is “does not significantly inhibit CYP3A4”.
